{
  "source": "patent US10139420B2",
  "about": "“Methods for treating vaso-occlusive crisis using non-modified annexin V” (ISNERM (Institut National de la Sante et de la Recherche …, priority 2011, dated 2018)",
  "origin": "cited, not measured here",
  "tested_on": "SCD patients",
  "conditions": "long term treatment; cited from earlier work",
  "data": [
    {"smiles": "NC(=O)NO", "note": "[hydroxy-urea]", "values": [
      {"measurement": "long term safety", "value": "presumptions of carcinogenesis in the long term"},
      {"measurement": "proportion of SCD patients in whom treatment is effective", "value": "about 40%"}
    ]}
  ]
}
